From the supplement of paper PMC13380429

Tests used:
Details in all cases: 72 h
HepG2 [1] = assay: relative viability EC50 (midpoint between 100% and the lowest measured viability); higher = less toxic
Vero E6 [2] = assay: as above
Calu-3 [3] = assay: as above
Caco-2 [4] = assay: as above
U2OS [5] = assay: as above
HepG2 [6] = assay: cell viability relative to DMSO; higher = less toxic
Vero E6 [7] = assay: as above
Calu-3 [8] = assay: as above
Caco-2 [9] = assay: as above
U2OS [10] = assay: as above
HepG2 [11] = assay: drug sensitivity score (DSS) for viability; higher = more toxic; extreme values may be limits of the assay
Vero E6 [12] = assay: as above
Calu-3 [13] = assay: as above
Caco-2 [14] = assay: as above
U2OS [15] = assay: as above

| SMILES | relative viability EC50 (HepG2 [1]) | relative viability EC50 (Vero E6 [2]) | relative viability EC50 (Calu-3 [3]) | relative viability EC50 (Caco-2 [4]) | relative viability EC50 (U2OS [5]) | cell viability (HepG2 [6]; 1 nM) | cell viability (HepG2 [6]; 10 nM) | cell viability (HepG2 [6]; 100 nM) | cell viability (HepG2 [6]; 1000 nM) | cell viability (HepG2 [6]; 10000 nM) | cell viability (Vero E6 [7]; 1 nM) | cell viability (Vero E6 [7]; 10 nM) | cell viability (Vero E6 [7]; 100 nM) | cell viability (Vero E6 [7]; 1000 nM) | cell viability (Vero E6 [7]; 10000 nM) | cell viability (Calu-3 [8]; 1 nM) | cell viability (Calu-3 [8]; 10 nM) | cell viability (Calu-3 [8]; 100 nM) | cell viability (Calu-3 [8]; 1000 nM) | cell viability (Calu-3 [8]; 10000 nM) | cell viability (Caco-2 [9]; 1 nM) | cell viability (Caco-2 [9]; 10 nM) | cell viability (Caco-2 [9]; 100 nM) | cell viability (Caco-2 [9]; 1000 nM) | cell viability (Caco-2 [9]; 10000 nM) | cell viability (U2OS [10]; 1 nM) | cell viability (U2OS [10]; 10 nM) | cell viability (U2OS [10]; 100 nM) | cell viability (U2OS [10]; 1000 nM) | cell viability (U2OS [10]; 10000 nM) | drug sensitivity score (HepG2 [11]) | drug sensitivity score (Vero E6 [12]) | drug sensitivity score (Calu-3 [13]) | drug sensitivity score (Caco-2 [14]) | drug sensitivity score (U2OS [15]) |
| --- | --- | --- | --- | --- | --- | --- | --- | --- | --- | --- | --- | --- | --- | --- | --- | --- | --- | --- | --- | --- | --- | --- | --- | --- | --- | --- | --- | --- | --- | --- | --- | --- | --- | --- | --- |
| COc1ccc(-n2nc(C(F)(F)F)cc2-c2ccc(Cl)cc2)cc1 [SC-560] | > 10 µM | 3.18 µM | > 10 µM | > 10 µM | > 10 µM | 106% | 104% | 104% | 91% | 87% | 98.2% | 105% | 92.6% | 100% | 44.3% | 104% | 104% | 109% | 95.3% | 108% | 101% | 99.1% | 95.7% | 92.2% | 86.6% | 102% | 99.9% | 104% | 98.8% | 100% | 0.6 | 3 | 0 | 0.2 | 0 |
| NC(N)=Nc1nc(CSCC/C(N)=N/S(N)(=O)=O)cs1 [famotidine] | > 10 µM | > 10 µM | > 10 µM | > 10 µM | > 10 µM | 106% | 102% | 90.4% | 97.5% | 93.4% | 113% | 106% | 89.2% | 101% | 94.3% | 107% | 91.5% | 113% | 105% | 97.7% | 107% | 106% | 108% | 97.2% | 109% | 94.3% | 95.4% | 99.6% | 95% | 99.4% | 0 | 0 | 0 | 0 | 0 |
